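Grown in 96-well plates, cells were treated for 48 hours with each compound at five concentrations. Insufficient inhibition: endpoint recorded as highest concentration tested. GI50 marks 50% less growth.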 Calls of active or inactive are those of the source. No stated cut-off is given here; in the data, active = GI50 up to about 1.1 µM and inactive = higher.
Tests used:
Assay in all cases: NCI anticancer screen, dose series, 48 h
SK-MEL-28 = tested on: SK-MEL-28
Malme-3M = tested on: Malme-3M
OVCAR-3 = tested on: OVCAR-3
HCT-116 = tested on: HCT-116
NCI-H522 = tested on: NCI-H522
NCI-H460 = tested on: NCI-H460
HOP-18 = tested on: HOP-18
ACHN = tested on: ACHN
U-251 = tested on: U-251
OVCAR-8 = tested on: OVCAR-8
K562 = tested on: K562
IGROV-1 = tested on: IGROV-1
TK-10 = tested on: TK-10
CAKI-1 = tested on: CAKI-1
OVCAR-5 = tested on: OVCAR-5
MOLT-4 = tested on: MOLT-4
RXF 393 = tested on: RXF 393

Measured: GI50

CC1=C(c2cc(C(=O)Nc3nccs3)nc(NC#N)n2)Sc2ccccc2N1
inactive: SK-MEL-28 > 100 µM | Malme-3M > 100 µM | OVCAR-3 > 100 µM | HCT-116 > 100 µM | NCI-H522 > 100 µM | NCI-H460 > 100 µM | HOP-18 > 100 µM | ACHN > 100 µM | U-251 > 100 µM | OVCAR-8 > 100 µM | K562 > 100 µM | IGROV-1 > 100 µM | TK-10 > 100 µM | CAKI-1 > 100 µM | OVCAR-5 > 100 µM | MOLT-4 > 100 µM

O=C(NNC(=O)c1cc(/C=C/c2cccc([N+](=O)[O-])c2)nc(S)n1)Nc1ccc(Cl)cc1
inactive: SK-MEL-28 > 100 µM | Malme-3M > 100 µM | OVCAR-3 62.8 µM | HCT-116 27.2 µM | RXF 393 34.5 µM | NCI-H522 22.7 µM | NCI-H460 46.6 µM | HOP-18 > 100 µM | ACHN > 100 µM | U-251 14.8 µM | OVCAR-8 68.4 µM | K562 39.2 µM | IGROV-1 > 100 µM | TK-10 > 100 µM | OVCAR-5 > 100 µM | MOLT-4 23.6 µM

O=C(CSc1nnc(-c2ccc(/N=C\c3ccc(Cl)cc3)cc2)o1)Nc1ccccc1Cl
inactive: SK-MEL-28 > 100 µM | Malme-3M > 100 µM | HCT-116 > 100 µM | RXF 393 > 100 µM | NCI-H522 > 100 µM | NCI-H460 > 100 µM | HOP-18 > 100 µM | ACHN > 100 µM | U-251 > 100 µM | OVCAR-8 > 100 µM | K562 > 100 µM | TK-10 > 100 µM | MOLT-4 > 100 µM

NC(=O)NNC/C(Cl)=C(\Cl)C(=O)O
inactive: SK-MEL-28 > 100 µM | Malme-3M > 100 µM | OVCAR-3 > 100 µM | HCT-116 > 100 µM | NCI-H522 > 100 µM | NCI-H460 > 100 µM | HOP-18 > 100 µM | ACHN > 100 µM | U-251 > 100 µM | OVCAR-8 > 100 µM | K562 > 100 µM | IGROV-1 > 100 µM | TK-10 > 100 µM | CAKI-1 > 100 µM | OVCAR-5 > 100 µM | MOLT-4 > 100 µM

O=C(O)CCSC(=O)Nc1ccccc1Cl
inactive: SK-MEL-28 > 100 µM | Malme-3M > 100 µM | OVCAR-3 > 100 µM | HCT-116 > 100 µM | RXF 393 > 100 µM | NCI-H460 > 100 µM | HOP-18 > 100 µM | ACHN > 100 µM | U-251 > 100 µM | OVCAR-8 > 100 µM | K562 > 100 µM | IGROV-1 > 100 µM | TK-10 > 100 µM | CAKI-1 > 100 µM | OVCAR-5 > 100 µM | MOLT-4 > 100 µM

N#C/C(=C\c1ccc(O)c(O)c1)C(N)=S [TYRPHOSTIN 47]
inactive: SK-MEL-28 > 84.7 µM | Malme-3M > 100 µM | OVCAR-3 38.7 µM | HCT-116 50.2 µM | NCI-H522 16.2 µM | NCI-H460 45.9 µM | HOP-18 > 100 µM | ACHN > 100 µM | U-251 70.5 µM | OVCAR-8 > 100 µM | K562 22.5 µM | IGROV-1 > 100 µM | TK-10 > 100 µM | CAKI-1 > 100 µM | OVCAR-5 > 100 µM | MOLT-4 32.7 µM

CC1(c2ccccc2)CC(c2ccccc2)=NO1 (configuration not stated)
inactive: SK-MEL-28 > 100 µM | Malme-3M > 100 µM | OVCAR-3 > 100 µM | HCT-116 > 100 µM | NCI-H522 > 100 µM | NCI-H460 > 100 µM | HOP-18 > 100 µM | ACHN > 100 µM | U-251 > 100 µM | OVCAR-8 > 100 µM | K562 > 100 µM | IGROV-1 > 100 µM | TK-10 > 100 µM | CAKI-1 > 100 µM | OVCAR-5 > 100 µM | MOLT-4 > 100 µM

C/C(=N\NC(=O)c1ccccc1O)c1c(O)cc(C)oc1=O
inactive: SK-MEL-28 > 100 µM | Malme-3M 99.5 µM | OVCAR-3 41.2 µM | HCT-116 49.4 µM | RXF 393 40.6 µM | NCI-H522 32.7 µM | NCI-H460 43.6 µM | HOP-18 27.2 µM | ACHN 45 µM | U-251 37.7 µM | OVCAR-8 68.2 µM | K562 72.6 µM | IGROV-1 34.2 µM | TK-10 > 100 µM | OVCAR-5 73.3 µM | MOLT-4 67.5 µM

CCOC(=O)C(C(=O)OCC)=C1N[C@H](C(=O)OCC)CS1
inactive: SK-MEL-28 > 100 µM | Malme-3M > 100 µM | OVCAR-3 > 100 µM | HCT-116 > 100 µM | RXF 393 > 100 µM | NCI-H522 > 100 µM | NCI-H460 > 100 µM | HOP-18 > 100 µM | ACHN > 100 µM | U-251 > 100 µM | OVCAR-8 > 100 µM | K562 > 100 µM | IGROV-1 > 100 µM | CAKI-1 > 100 µM | OVCAR-5 > 100 µM | MOLT-4 > 100 µM

CN(C)CCNC(=O)c1cccc2[nH]c(-c3ccccc3)nc12
inactive: SK-MEL-28 18.3 µM | OVCAR-3 21.6 µM | HCT-116 9.73 µM | RXF 393 17.2 µM | NCI-H460 15.4 µM | HOP-18 11.9 µM | ACHN 15.3 µM | U-251 25.4 µM | OVCAR-8 > 10 µM | K562 26.4 µM | IGROV-1 21.7 µM | TK-10 18.5 µM | CAKI-1 24.7 µM | OVCAR-5 15.7 µM | MOLT-4 4.91 µM

Cn1c(=O)c2c3oc(=O)cc(O)c3c(=O)n3c4ccccc4n(c1=O)c23
inactive: Malme-3M 33.1 µM | OVCAR-3 24.6 µM | HCT-116 32.8 µM | RXF 393 38.8 µM | NCI-H460 37.2 µM | HOP-18 36.5 µM | ACHN 38 µM | U-251 41.4 µM | OVCAR-8 40.9 µM | K562 20.3 µM | IGROV-1 44.2 µM | TK-10 > 100 µM | CAKI-1 32.3 µM | OVCAR-5 52.5 µM | MOLT-4 33.3 µM

COc1cccc2c1OC1Sc3ccccc3-c3nn(-c4ccccc4)c-2c31 (configuration not stated)
inactive: SK-MEL-28 > 100 µM | Malme-3M > 100 µM | OVCAR-3 > 100 µM | HCT-116 > 100 µM | RXF 393 > 100 µM | NCI-H522 26.7 µM | NCI-H460 > 100 µM | HOP-18 > 100 µM | ACHN > 100 µM | U-251 > 100 µM | OVCAR-8 > 100 µM | K562 > 100 µM | IGROV-1 > 100 µM | TK-10 > 100 µM | OVCAR-5 > 100 µM | MOLT-4 > 100 µM

Cc1cccc(C)c1N1C(=O)C(=O)C(c2nc3ccccc3s2)/C(=N/NC(=O)NN)C1=O (configuration not stated)
inactive: SK-MEL-28 > 100 µM | Malme-3M > 100 µM | OVCAR-3 > 100 µM | HCT-116 > 100 µM | RXF 393 > 100 µM | NCI-H522 > 100 µM | NCI-H460 > 100 µM | HOP-18 > 100 µM | ACHN > 100 µM | U-251 > 100 µM | OVCAR-8 > 100 µM | IGROV-1 > 100 µM | TK-10 > 100 µM | CAKI-1 > 100 µM | MOLT-4 > 100 µM

From ChEMBL document CHEMBL1201862, “PubChem BioAssay data set” (2004)
